Laboratory results as given in ChEMBL document CHEMBL5370543, “Discovery of 6-aryl-2-(3,4,5-trimethoxyphenyl)thiazole[3,2-b][1,2,4]triazoles as potent tubulin polymerization inhibitors” (Eur J Med Chem, 2023).
Calls of active or inactive are those of the source. The rule behind the calls is not given here.

Legend:
4T1 [1] = assay: Cytotoxicity against mouse 4T1 cells assessed as cell growth inhibition incubated for 72 hrs by MTT assay; type: functional, cell-based; conditions: 4T1, 72 h
SGC-7901 [2] = assay: Induction of cell cycle arrest in human SGC-7901 cells assessed as accumulation at G0/G1 phase at 2 times IC50 incubated for 48 hrs by PI/RNase staining based flow cytometry (reference value: 42 %); type: functional
SGC-7901 [3] = assay: Induction of cell cycle arrest in human SGC-7901 cells assessed as accumulation at S phase at 2 times IC50 incubated for 48 hrs by PI/RNase staining based flow cytometry (reference value: 46 %); type: functional
SGC-7901 [4] = assay: Induction of cell cycle arrest in human SGC-7901 cells assessed as accumulation at G0/G1 phase at 2 times IC50 incubated for 6 hrs by PI/RNase staining based flow cytometry (reference value: 42 %); type: functional
SGC-7901 [5] = assay: Induction of cell cycle arrest in human SGC-7901 cells assessed as accumulation at S phase at 2 times IC50 incubated for 72 hrs by PI/RNase staining based flow cytometry (reference value: 46 %); type: functional
MCF7 = assay: Antiproliferative activity against human MCF7 cells assessed as cell growth inhibition incubated for 72 hrs by MTT assay; type: functional, cell-based; conditions: MCF7, 72 h
Tubulin (Homo sapiens) [6] = target: T1, Tubulin (Homo sapiens) (UniProt P68371+Q9H4B7+P0DPH7+P68366+Q13509+Q71U36+P04350+Q3ZCM7+P07437+P68363+Q9BQE3+Q6PEY2+Q13885+Q9BVA1+Q9BUF5); assay: Binding affinity to tubulin (unknown origin) at colchicine binding site assessed as tubulin-colchicine complex competition rate at 1.25 uM preincubated for 45 mins followed by colchicine addition by fluorescence based assay relative to control; type: protein-complex assay
SGC-7901 [7] = assay: Antiproliferative activity against human SGC-7901 cells assessed as cell growth inhibition incubated for 72 hrs by MTT assay; type: functional, cell-based; conditions: SGC-7901, 72 h
SGC-7901 [8] = assay: Induction of cell cycle arrest in human SGC-7901 cells assessed as accumulation at sub-G1 phase at 2 times IC50 incubated for 72 hrs by PI/RNase staining based flow cytometry (reference value: 2 %); type: functional
SGC-7901 [9] = assay: Induction of cell cycle arrest in human SGC-7901 cells assessed as accumulation at sub-G1 phase at 2 times IC50 incubated for 12 hrs by PI/RNase staining based flow cytometry (reference value: 2 %); type: functional
[10] = Selectivity index, ratio of IC50 for HUVEC cells to IC50 for human SGC-7901 cells; type: functional
SGC-7901 [11] = assay: Induction of cell cycle arrest in human SGC-7901 cells assessed as accumulation at G2/M phase at 2 times IC50 incubated for 24 hrs by PI/RNase staining based flow cytometry (reference value: 10 %); type: functional
[12] = Toxicity in Balb/c mouse allografted with mouse 4T1 cells assessed as decrease in body weight at 20 mg/kg, iv administered every other day measured for 12 days; type: organism-based; conditions: in vivo, 288 h, time 12 day
SGC-7901 [13] = assay: Induction of cell cycle arrest in human SGC-7901 cells assessed as accumulation at S phase at 2 times IC50 incubated for 6 hrs by PI/RNase staining based flow cytometry (reference value: 46 %); type: functional
[14] = Cytotoxicity against HUVEC cells assessed as cell growth inhibition incubated for 72 hrs by MTT assay; type: toxicity, cell-based; conditions: human
SGC-7901 [15] = assay: Induction of cell cycle arrest in human SGC-7901 cells assessed as accumulation at S phase at 2 times IC50 incubated for 24 hrs by PI/RNase staining based flow cytometry (reference value: 46 %); type: functional
SGC-7901 [16] = assay: Induction of cell cycle arrest in human SGC-7901 cells assessed as accumulation at G0/G1 phase at 2 times IC50 incubated for 12 hrs by PI/RNase staining based flow cytometry (reference value: 42 %); type: functional
SGC-7901 [17] = assay: Induction of cell cycle arrest in human SGC-7901 cells assessed as accumulation at G2/M phase at 2 times IC50 incubated for 72 hrs by PI/RNase staining based flow cytometry (reference value: 10 %); type: functional
SGC-7901 [18] = assay: Induction of cell cycle arrest in human SGC-7901 cells assessed as accumulation at sub-G1 phase at 2 times IC50 incubated for 48 hrs by PI/RNase staining based flow cytometry (reference value: 2 %); type: functional
4T1 [19] = assay: Antitumor activity against mouse 4T1 cells allografted in Balb/c mouse assessed as tumor growth inhibition at 20 mg/kg, iv administered every other day measured for 12 days relative to control; type: functional; conditions: 4T1, 288 h, time 12 day, read-out: TGI
4T1 [20] = assay: Antitumor activity against mouse 4T1 cells allografted in Balb/c mouse assessed as tumor weight at 20 mg/kg, iv administered every other day measured after 12 days (reference value: 448 mg); type: functional; conditions: time 12 day
SGC-7901 [21] = assay: Induction of cell cycle arrest in human SGC-7901 cells assessed as accumulation at G0/G1 phase at 2 times IC50 incubated for 24 hrs by PI/RNase staining based flow cytometry (reference value: 42 %); type: functional
SGC-7901 [22] = assay: Induction of cell cycle arrest in human SGC-7901 cells assessed as accumulation at sub-G1 phase at 2 times IC50 incubated for 24 hrs by PI/RNase staining based flow cytometry (reference value: 2 %); type: functional
4T1 [23] = assay: Antitumor activity against mouse 4T1 cells allografted in Balb/c mouse assessed as decrease in tumor volume at 20 mg/kg, iv administered every other day measured for 12 days; type: functional, organism-based; conditions: time 12.0 day
SGC-7901 [24] = assay: Induction of cell cycle arrest in human SGC-7901 cells assessed as accumulation at G2/M phase at 2 times IC50 incubated for 6 hrs by PI/RNase staining based flow cytometry (reference value: 10 %); type: functional
4T1 [25] = assay: Antitumor activity against mouse 4T1 cells allografted in Balb/c mouse assessed as tumor weight at 5 mg/kg, iv administered every other day measured after 12 days (reference value: 448 mg); type: functional; conditions: time 12 day
Tubulin (Homo sapiens) [26] = target: T1, Tubulin (Homo sapiens); assay: Disruption of microtubule organization in human SGC-7901 cells assessed as shrinkage of microtubule network around nucleus at 2 times IC50 incubated for 12 hrs by […] based analysis; type: cell-based
HT-1080 = assay: Antiproliferative activity against human HT-1080 cells assessed as cell growth inhibition incubated for 72 hrs by MTT assay; type: functional, cell-based; conditions: HT-1080, 72 h
SGC-7901 [27] = assay: Induction of cell cycle arrest in human SGC-7901 cells assessed as accumulation at G2/M phase at 2 times IC50 incubated for 48 hrs by PI/RNase staining based flow cytometry (reference value: 10 %); type: functional
Tubulin (Homo sapiens) [28] = target: T1, Tubulin (Homo sapiens); assay: (§1) Inhibition of tubulin polymerization (unknown origin) by fluorescence based assay; type: protein-complex assay
Tubulin = assay: as §1; type: protein-complex assay, Homo sapiens
4T1 [29] = assay: Antitumor activity against mouse 4T1 cells allografted in Balb/c mouse assessed as tumor weight at 10 mg/kg, iv administered every other day measured after 12 days (reference value: 448 mg); type: functional; conditions: time 12 day
4T1 [30] = assay: Antitumor activity against mouse 4T1 cells allografted in Balb/c mouse assessed as tumor growth inhibition at 5 mg/kg, iv administered every other day measured for 12 days relative to control; type: functional; conditions: 4T1, 288 h, time 12 day, read-out: TGI
SGC-7901 [31] = assay: Induction of cell cycle arrest in human SGC-7901 cells assessed as accumulation at G2/M phase at 2 times IC50 incubated for 12 hrs by PI/RNase staining based flow cytometry (reference value: 10 %); type: functional
SGC-7901 [32] = assay: Induction of cell cycle arrest in human SGC-7901 cells assessed as accumulation at S phase at 2 times IC50 incubated for 12 hrs by PI/RNase staining based flow cytometry (reference value: 46 %); type: functional
4T1 [33] = assay: Antitumor activity against mouse 4T1 cells allografted in Balb/c mouse assessed as tumor growth inhibition at 10 mg/kg, iv administered every other day measured for 12 days relative to control; type: functional; conditions: 4T1, 288 h, time 12 day, read-out: TGI
SGC-7901 [34] = assay: Induction of cell cycle arrest in human SGC-7901 cells assessed as accumulation at sub-G1 phase at 2 times IC50 incubated for 6 hrs by PI/RNase staining based flow cytometry (reference value: 2 %); type: functional

## COc1cc(-c2nc3scc(-c4cc(Cl)cc(Cl)c4)n3n2)cc(OC)c1OC
4T1 [1]
  IC50: 341 nM
SGC-7901 [2]
  Activity: 4%
SGC-7901 [3]
  Activity: 8%
SGC-7901 [4]
  Activity: 36%
SGC-7901 [5]
  Activity: 3%
MCF7
  IC50: 2130 nM
Tubulin (Homo sapiens) [6]
  Activity: 37.9%
SGC-7901 [7]
  IC50: 210 nM
SGC-7901 [8]
  Activity: 93%
SGC-7901 [9]
  Activity: 17%
[10]
  Ratio IC50: 62.62
SGC-7901 [11]
  Activity: 42%
[12]
  Activity: Non-Toxic
SGC-7901 [13]
  Activity: 49%
[14]
  IC50 at 72 h: 13200 nM
SGC-7901 [15]
  Activity: 21%
SGC-7901 [16]
  Activity: 21%
SGC-7901 [17]
  Activity: 4%
SGC-7901 [18]
  Activity: 69%
4T1 [19]
  inhibition in vivo at 20 mg/kg: 84%
4T1 [20]
  Activity: 71.76 mg
SGC-7901 [21]
  Activity: 16%
SGC-7901 [22]
  Activity: 21%
4T1 [23]
  Activity: Active
SGC-7901 [24]
  Activity: 13%
4T1 [25]
  Activity: 227.5 mg
Tubulin (Homo sapiens) [26]
  Activity: Active
HT-1080
  IC50: 1180 nM
SGC-7901 [27]
  Activity: 19%
Tubulin (Homo sapiens) [28]
  inhibition: Dose-Dependent Effect
Tubulin
  IC50: 6870 nM
4T1 [29]
  Activity: 187.74 mg
4T1 [30]
  inhibition in vivo at 5 mg/kg: 49.2%
SGC-7901 [31]
  Activity: 31%
SGC-7901 [32]
  Activity: 31%
4T1 [33]
  inhibition in vivo at 10 mg/kg: 58.1%
SGC-7901 [34]
  Activity: 2%
